According to patent US8709445B2, “Vaccination with killed but metabolically active (KBMA) protozoans with toll-like receptor agonists” (priority 2007, dated 2014):
“Also recorded” adds a separate entry of the source.

Columns and labels:
Leishmania chagasi = test: In vitro luciferase assay of parasite metabolic activity after S-59 and UVA; assay type: cell-based
Procedure: The L. chagasi strain (MHOM/BR/00/1669), originally isolated from a patient with visceral leishmaniasis in Northeast Brazil, was maintained by serial intracardiac injection in outbred male golden hamsters. Virulent amastigotes were isolated from hamster spleens removed from animals infected approximately 3 months prior to sacrifice. Promastigotes were cultured in hemoflagellate minimal essential medium (HOMEM) at 26° C. and were used for vaccination or challenge within one month of harvest from the hamsters. Killed But Metabolically Active (KBMA) promastigotes were prepared by incubating late-log or stationary phase organisms in amotosalen (S-59) 100 nM for one hour while shaking at room temperature, followed by cross-linking of DNA using UVA irradiation of aliquots of 2 ml of cells in 6 well plates in an Intercept Illuminator (Cerus Corporation). Radiation dose was 5.4 J/cm^2. Heat-killed organisms were prepared by incubating in a 100° C. bath for 10 minutes. Transgenic firefly luciferase expressing L. chagasi and L. major were kindly provided by Dr. Beverley. For CFSE-based flow cytometry experiments, promastigotes were stained with CFSE at 5 μM and, shaken at 37° C. for 10 minutes. Parasites were washed three times with PBS and then cultured at an initial concentration of 5×10^6 per ml in HOMEM for in vitro experiments or injected into mice in 200 μL, of PBS at a concentration of 5×10^8 per ml.
Serial measures of parasite luciferase activity were made using a Sirius Single Tube Luminometer (Berthold Detection Systems). Aliquots of cultured organisms were taken daily and combined with 5× reporter lysis buffer per the manufacturer's instructions, and frozen at −80° C. All samples were then snap-thawed at 37° C. on the day of assay. 50 μl samples from each aliquot were combined with 100 μl of luciferin and luminescence was quantified with the luminometer in relative luminsescence units (RLU).
A mouse visceral leishmaniasis model employing Leishmania chagasi expressing firefly luciferase was used to test the susceptibility of a eukaryotic pathogen to in vitro inactivation?). L. chagasi were treated with varying doses of S-59 for 1 hour and then exposed to 5.4 J/cm2 UVA using a commercial illuminator which delivers tightly metered UVA doses to a shaking flask of organisms. This UVA dose was determined based on prior experience with Listeria. After irradiation with UVA, parasites were kept in culture and assayed at various time points for luciferase expression as a measure of metabolic activity. […] To determine if the S-59 induced decline in luciferase activity was associated with an inability to replicate, live L. chagasi promastigotes were stained with the intracellular dye CFSE and monitored for 1 week in culture.

L. chagasi promastigotes = test: CFSE flow cytometry of promastigote replication in culture; assay type: cell-based, Leishmania chagasi; details: 100 nM S-59 and 5.4 Joules/cm^2 UVA; days 1-7 in culture
Procedure: The L. chagasi strain (MHOM/BR/00/1669), originally isolated from a patient with visceral leishmaniasis in Northeast Brazil, was maintained by serial intracardiac injection in outbred male golden hamsters. Virulent amastigotes were isolated from hamster spleens removed from animals infected approximately 3 months prior to sacrifice. Promastigotes were cultured in hemoflagellate minimal essential medium (HOMEM) at 26° C. and were used for vaccination or challenge within one month of harvest from the hamsters. Killed But Metabolically Active (KBMA) promastigotes were prepared by incubating late-log or stationary phase organisms in amotosalen (S-59) 100 nM for one hour while shaking at room temperature, followed by cross-linking of DNA using UVA irradiation of aliquots of 2 ml of cells in 6 well plates in an Intercept Illuminator (Cerus Corporation). Radiation dose was 5.4 J/cm^2. […]
A mouse visceral leishmaniasis model employing Leishmania chagasi expressing firefly luciferase was used to test the susceptibility of a eukaryotic pathogen to in vitro inactivation?). […] This UVA dose was determined based on prior experience with Listeria. […] To determine if the S-59 induced decline in luciferase activity was associated with an inability to replicate, live L. chagasi promastigotes were stained with the intracellular dye CFSE and monitored for 1 week in culture.

L. chagasi = assay type: in vivo, Leishmania chagasi; details: for protection (reduction in liver parasite load): pilot experiment, combination of subcutaneous KBMA-LC and topically applied TLR agonist
Procedure: On the day prior to each vaccination, mice were anesthetized by intraperitoneal injection of 0.2 ml a solution of ketamine 9.1 mg/ml and xylazine 0.73 mg/ml. A 2×3 cm patch of fur in the dorsal cervical area was shaved, and 50 mg of adjuvant cream—either imiquimod 5% cream or appropriate vehicle (3M Pharmaceuticals)—was applied topically to the shaved area. On the day of immunization, mice were anesthetized as above. Unfractionated late-log to stationary phase promastigotes (live or KBMA) were spun at 2000 g for 10 minutes, resuspended in PBS, counted on a Neubauer hemocytometer, and volume-adjusted to a final concentration of 10^8 organisms/ml. One hundred micoliters of the appropriate parasite suspension (10^7 organisms) or 100 μl of PBS for controls was subcutaneously injected into the dorsal-cervical area of anesthetized mice using a 28-gauge needle. Adjuvant cream was then applied at the shaved skin site as above. On the day after immunization, adjuvant cream was once again applied topically as above on unanesthetized mice. For each experiment, mice were immunized three times at two-week intervals. Two weeks after the final immunization, mice were challenged by intravenous injection with 10^7 unfractionated late-log to stationary phase promastigotes in 0.2 ml of PBS.
Vaccinated mice were sacrificed by CO2 inhalation 4 weeks after intravenous challenge. Livers and spleens were weighed. Impression smears on glass slides were made from dissected spleen and liver tissue and were then methanol-fixed and amastigotes were detected with Giemsa stain. Organ parasite load was scored by direct microscopy and rendered in Leishman-Donavan Units (LDU), defined as number of parasites divided by number of mammalian cells multiplied by the organ mass in milligrams. At least 500 mammalian cells or 500 parasites were counted by a scorer blinded to the vaccination groups.

splenocytes = test: Luminex cytokine production in splenocytes from immunized mice; assay type: in vivo, BALB/c mice
Procedure: FIG. 11C: Luminex quantitation of cytokine production in splenocytes from L. chagasi immunized BALB/c mice with or without adjuvant 5% imiquimod. Mice were immunized three times at two week as in FIG. 10. Two weeks after the final vaccination, animals were sacrificed and 10^6 splenocytes from each were cultured for 66 hours in either in the presence of live L. chagasi. Supernatants from these cultures were frozen and then subsequently thawed and analyzed by the luminex method using antibodies and antibody coated beads specific for the indicated cyotokines. Bars show concentration of the relevant cytokine in pg/ml+/−SEM.
In a parallel experiment, groups of mice were vaccinated and boosted twice as described above. Splenocytes were harvested from these animals 2 weeks after the third vaccination. Splenocytes were then stimulated with either live LC promastigotes or soluble L. chagasi antigen (SLA) for 66 hours in culture and supernatants were harvested.

SMILES | time by which all detectable metabolic activity was abolished (Leishmania chagasi; 10^7 promastigotes, 100 nM S-59 and 5.4 Joules/cm^2 UVA) | luciferase activity by day 21 (Leishmania chagasi; 100 nm S-59 and UVA, culture inoculated at 10^7 per ml) | effect of higher doses of S-59 on luciferase activity (Leishmania chagasi; doses higher than 100 nM, with UVA, data not shown) | S-59 dose leading to breakthrough outgrowth of parasites (Leishmania chagasi; with 5.4 J/cm2 UVA, data not shown) | replication of CFSE stained promastigotes (per parasite fluorescence) (L. chagasi promastigotes) | effect of adjuvant only (L. chagasi; Example 3, imiquimod 5% without whole cell vaccine (PBS)) | effect of adjuvant cream compared to control vehicle cream (L. chagasi; Example 3, topical 5% cream in each vaccination group) | protection (reduction in liver parasite load) (L. chagasi) | pattern of cytokine expression, whole cell vaccines with adjuvant versus vehicle (splenocytes; imiquimod 5% with whole cell vaccines) | cytokine production, PBS with adjuvant versus PBS with vehicle (splenocytes; imiquimod 5% without whole cell vaccine)
Cc1oc2c(C)c3oc(=O)cc(C)c3cc2c1COCCN [S-59, amotosalen] | ≤ 3 weeks | approaches baseline luminescence from PBS | more rapid decline in luciferase activity | lower than 50 nM | no such diminution; also recorded: arrests replication |  |  |  |  | 
CC(C)Cn1cnc2c(N)nc3ccccc3c21 [imiquimod, 1-isobutyl-1H-imidazo[4,5-c]quinolin-4-amine] |  |  |  |  |  | trend towards a protective effect | additional protection | 68% | increased IFN-γ but decreased IL-10, IL-4, and IL-5 | no increase in cytokine production
CCOCc1nc2c(N)nc3ccccc3c2n1CC(C)(C)O [resiquimod, 4-Amino-2-(ethoxymethyl)-a,a-dimethyl-1H-imidazo[4,5-c]quinoline-1-ethanol] |  |  |  |  |  |  |  | 87% |  | 
